Laboratory results from article PMC4017264 (Molecular Cell, 2014).

How the values were obtained:
[1] = test system: endogenous LUBAC (HOIP, HOIL-1, SHARPIN); test: coimmunoprecipitation of endogenous LUBAC components with HA-tagged OTULIN; type: cell-based; details: HA-OTULIN variants in HEK293T cells, anti-HA IP, western blot
Description: Transfected HEK293T or U2OS and NOD2 cells were lysed in the presence of protease and phosphatase inhibitors. Clarified lysates were incubated overnight with anti-V5 and anti-HA-agarose resin. […]
(§1) siOTULIN: […], siMM […]
Immunoprecipitation of HOIP-V5 and HA-OTULIN
HEK293T or U2OS/NOD2 cells were transfected as indicated. The cells were lysed in IP buffer buffer (25 mM HEPES pH 7.4, 150 mM KCl, 2 mM MgCl2, 1 mM EGTA, 0.5% (v/v) Triton X-100) supplemented with 5 mM NEM (Sigma-Aldrich), cOmplete protease inhibitor cocktail (Roche) and PhosSTOP
(Roche). After 30 minutes on ice, the lysates were cleared by centrifugation and incubated overnight at 4 °C with anti-V5-agarose resin or anti-HA-agarose resin. The beads were washed four times in ice-cold IP buffer and the precipitated material was eluted with 0.2 M glycine, pH 2.5. […]

[2] = test system: HOIP PUB domain (15N HOIP 1-184); test: NMR binding (chemical shift perturbation) to 15N-labeled HOIP PUB domain; parameters: species or system Human; details: 15N BEST-TROSY NMR, 100 μM 15N HOIP 1-184, 20 mM phosphate pH 6.8, 50 mM NaCl, 2 mM DTT, 298K
Description: Standard triple-resonance experiments (HNCA, HN(CO)CA, HNCACB, CBCA(CO)NH, and HBHA(CO)NH) were acquired for the assignment of HOIP resonances. Constant time ^13C and ^13C-HSQC were acquired for the methyl and aromatic regions. In addition, (HB)CB(CGCD)HD and (HB)CB(CGCDCE)HE experiments coupled the Cβ of tyrosine resonances to the Hδ and Hε positions of the tyrosine ring, respectively.
Fluorescence polarization binding assays
10 µl of 100 nM FITC-Ahx peptides of either OTULIN (49-67) or p97 (797-806) were aliquoted into a 384-well low volume plate (Corning). Serial dilutions of HOIP PUB into FP assay buffer (20 mM Tris pH 7.4, 100 mM NaCl, 1 mM DTT) were prepared and 10 µl of this was aliquoted to FITC-Ahx peptide-containing wells. Fluorescence polarization was recorded on a PheraStar plate reader (BMG Labtech) using an optics module with $ex = 485 nm and $em = 520 nm. To derive binding constants (KD), polarization values were fitted to a one-site binding model using Graphpad Prism 5.
Nuclear Magnetic Resonance Spectroscopy
Uniformly labeled 15N or 13C, 15N samples of HOIP were prepared following growth in 2M9 medium supplemented with either 15N NH4Cl or 13C glucose.
Proteins were purified as described above and all samples were exchanged into NMR sample buffer (20 mM Na2HPO4/NaH2PO4 pH 6.8, 50 mM NaCl, 2 mM DTT). Lyophilized OTULIN and p97 PIM peptides were reconstituted in NMR sample buffer and the pH adjusted to pH 6.8 prior to use. NMR data were acquired at 298K on Bruker Avance III 600 MHz and Avance2+ 700
MHz spectrometers, equipped with cryogenic triple resonance TCI probes.
Standard triple resonance experiments (HNCA, HN(CO)CA, HNCACB, CBCA(CO)NH, HBHA(CO)NH) were acquired for the assignment of backbone
HOIP resonances. In addition, constant-time (ct) 13C and 13C-HSQC were acquired for the methyl and aromatic regions. For assignment of the H",H# resonances of HOIP tyrosines, (HB)CB(CGCD)HD and (HB)CB(CGCDCE)HE spectra were acquired, which coupled the C$ position of the tyrosine resonances to the H"/H# position of the tyrosine ring respectively. […]

[3] = test system: LUBAC-induced NFκB activity; test: NFκB luciferase reporter assay (LUBAC-induced); type: cell-based; details: HEK293T cells; for inhibition of NFκB activity induced by HOIP PIM pocket mutants (N102D, Y82A) + HOIL-1 (in words): compared with wild-type HOIP
Description: Cells were cotransfected with the NFκB luciferase reporter construct pBIIXluc and the thymidine kinase-renilla luciferase construct in addition to other vectors used in the study. After 24 hr, cells were lysed in passive lysis buffer (Promega), and luciferase activity was recorded. Protein expression levels were determined by western blotting of cell lysates. […]
as §1
Luciferase reporter assays
Cells were co-transfected with the NF!B luciferase reporter construct pBIIXluc and the thymidine kinase-renilla luciferase construct to enable normalization of transfection efficiency. Cells were co-transfected with additional plasmids as indicated. After 24 h cells were lysed in 75 %L passive lysis buffer (Promega) and luciferase activity was measured on a FLUOstar Omega
Microplate Reader (BMG LABTECH GmbH, Offenburg, Germany) using the DualLuciferase ® Assay System (Promega) according to the manufacturer’s instructions. Protein expression levels were determined by SDS-PAGE and Western blotting of cell lysates as indicated. The data shown represents mean ± SEM. A two-tailed Student´s t -test was applied to evaluate statistical

HOIP 1-184 = test: analytical size-exclusion chromatography binding; parameters: species or system Human; details: Superdex 75; 30 µM HOIP, 25 µM OTULIN, 20 mM Tris pH 7.4, 150 mM NaCl, 2 mM DTT, room temperature 15 min
Description: All mutations were generated by site directed mutagenesis using the QuikChange method with KOD HotStart DNA polymerase.
Protein expression and purification
HOIP PUB domain constructs were expressed in Rosetta2 (DE3) pLacI cells.
Cells were grown at 30 °C in 2 xTY medium supplemented with 30 µg/ml kanamycin and 34 µg/ml chloramphenicol to an OD600 of 0.8. The culture was cooled to 18 °C prior to overnight induction with 400 µM IPTG. Cells were resuspended and lysed by sonication in lysis buffer (20 mM Tris pH 7.4, 300 mM NaCl, 50 mM imidazole, 2 mM #-mercaptoethanol, lysozyme, DNaseI
(Sigma) and protease inhibitor cocktail (Roche)). HOIP was purified by immobilized metal affinity chromatography using a HisTrap column (GE Life Sciences). The His6-tag was cleaved by overnight incubation with 3C protease. The protein was buffer exchanged into 20 mM Tris pH 8.5, 2 mM DTT and purified further by anion exchange chromatography (ResourceQ, GE Life Sciences). Eluted HOIP was then subjected to size exclusion chromatography (HiLoad 16/60 Superdex 75, GE Life Sciences) in buffer containing 20 mM Tris pH 8.5, 150 mM NaCl, 2 mM DTT. The resultant fractions were judged to be 99% pure following SDS-PAGE analysis and flash frozen. OTULIN was expressed and purified according to (Keusekotten et al., […]
kind gift from Mark Allen (MRC LMB).
Analytical size exclusion chromatography binding studies […]

[4] = test system: HOIP (Met1-linked polyUb); details: overexpression of catalytically inactive OTULIN, ref Fiil et al., 2013, Keusekotten et al.; cited from earlier work
Description: So far, the cellular consequences of OTULIN-LUBAC interaction are unclear. […] We wondered whether this depended on the formation of the OTULIN-HOIP complex or whether OTULIN would act in trans on the complex. When coexpressed with HOIL-1, HOIP PUB binding mutants autoubiquitinated in cells exp ...

[5] = test system: HOIP (Met1-linked polyUb); test: HOIP autoubiquitination, purification of endogenous Met1-polyUb conjugates (M1-SUB pulldown); type: cell-based; details: U2OS/NOD2 cells, ectopic OTULIN variants, basal, identical with L18-MDP or TNF, immunoblot
Description: Antibodies and affinity resin
The following antibodies and reagents were used according to the manufacturers’ instructions: anti-HA-agarose resin (A2095), anti-V5-agarose resin (A7345) and rabbit polyclonal anti-HOIP/RNF31 (SAB2102031, Sigma-Aldrich), rat monoclonal anti-HA (#11867423991, Roche Diagnostics, Burgess Hill, UK), mouse monoclonal anti-ubiquitin (IMG-5021, Imgenex, San Diego, CA), rabbit polyclonal anti-SHARPIN (#14626-1-AP, ProteinTech, Chicago, IL), rabbit polyclonal anti-RBCK1/HOIL-1 (NBP1-88301, Novus Biologicals, Littleton, CO), mouse monoclonal anti-V5 (MCA1360, AbD Serotec, Kidlington, UK), mouse monoclonal anti-$-actin (MAB1501, Chemicon, Millipore, Billerica, MA), rabbit polyclonal anti-HOIL-1, rabbit polyclonal anti-HOIP/RNF31
(Sigma), mouse monoclonal anti-p97 (Thermo Scientific). The
Fam105B/OTULIN antibody was previously described (Keusekotten et al., 2013). […]
HEK293ET, RPE1 and U2OS cells were collected, washed with PBS and lysed on ice for 30 minutes in SEC cell extraction buffer (150 mM NaCl, 50 mM Tris-HCl pH 7.4, 1 mM MgCl2, 1 mM DTT, 0.3% NP40, protease and (Roche)). […] In total 3.1 mg protein extract was analyzed on a Superdex 200 10/300 GL column (GE Life Sciences). […]

Substance | coimmunoprecipitation of endogenous LUBAC components (in words) [1] | binding / chemical shift perturbations of HOIP PUB domain (in words) [2] | inhibition of NFκB activity induced by wild-type LUBAC (in words) ([3]; HOIL-1 + wild-type HOIP) | inhibition of NFκB activity induced by HOIP PIM pocket mutants (N102D, Y82A) + HOIL-1 (in words) [3] | inhibition of NFκB activity induced by HOIP PIM pocket mutants (N102D, Y82A) + HOIL-1 (in words) ([3]; listed as wild-type OTULIN) | binding to HOIP aa 1-184 (in words) (HOIP 1-184) | HOIP autoubiquitination with Met1-linked polyUb (in words), previously shown [4] | HOIP autoubiquitination with Met1-linked polyUb (in words) [5]
OTULIN: full-length OTULIN (aa 1–352), Met1-specific deubiquitinase | coimmunoprecipitated all proteins from the endogenous LUBAC complex | pattern of HOIP CSPs was identical | abrogated NFκB activity | less effective in inhibiting activity | reduced the ability of OTULIN to antagonize LUBAC-induced NFκB activity | able to bind |  | 
OTULIN C129A: catalytically inactive OTULIN C129A mutant (CA) |  |  |  |  |  |  | lead to the autoubiquitination of HOIP with Met1-linked polyUb chains | led to extensive HOIP ubiquitination
